Data on 7 compounds can be found in patent US20250255926A1, “GINGEROL COMPOSITIONS AND RELATED METHODS” (ThermoLife International, LLC, priority 2024, published 2025).

Where two headings read alike, the source gives them in different places.

For data set [1] the following is noted: cited from earlier work.
In data set [2] the test system is herpes simplex virus infection. As to the kind of experiment: Herpes simplex blister outbreak in two subjects (Example 6). The class given is in vivo, human. Conditions: same two subjects. The protocol:
Two females ([…]) with a chronic herpes simplex virus infection with frequent outbreaks of blisters on their lips ingested 1000 ml of the water-soluble ginger extract produced according to Example 1 while acutely suffering from large painful blisters.
For past outbreaks, both subjects tried multiple remedies, both pharmaceutical and natural, to treat the blisters. They include Abriva®, tea tree oil, toothpaste, lysine, acyclovir, topical hydrogen peroxide, Vaseline® and Aquafor®.

For the compound `CCCCCCC[C@H](O)CC(=O)CCc1ccc(O)c(OC)c1` [Example 8-gingerol, 8-gingerol], in data set [1] (pH 2), the “Solubility, pH 2 - HCl buffer” value is listed as above 100 μM. The “Solubility, pH 4 - citrate buffer” value in data set [1] (pH 4) was above 100 μM. In data set [1] (pH 7.4), the “Solubility, pH 7.4 - phosphate buffer” value is above 100 μM.
On to `NCCCC[C@H](N)C(=O)O` [lysine], for which the “Relief or healing of blisters in past outbreaks” value (from here on “Relief or healing of blisters”) in data set [2] is reported as “None of those remedies provided any noticeable immediate relief or greater healing of the symptoms”.
In the case of `CCCCC[C@H](O)CC(=O)CCc1ccc(O)c(OC)c1` [Example 6-gingerol, 6-gingerol], in data set [1] (pH 2), the “Solubility, pH 2 - HCl buffer” value is above 100 μM. In addition, the “Solubility, pH 4 - citrate buffer” value in data set [1] (pH 4) was above 100 μM. Besides, in data set [1] (pH 7.4), the “Solubility, pH 7.4 - phosphate buffer” value is given as above 100 μM.
For `OO` [topical hydrogen peroxide, hydrogen peroxide], the “Relief or healing of blisters” value in data set [2] was “None of those remedies provided any noticeable immediate relief or greater healing of the symptoms”.
For `CCCCC/C=C/C(=O)CCc1ccc(O)c(OC)c1` [Example 6-shogoal, 6-shogoal], the “Solubility, pH 2 - HCl buffer” value in data set [1] (pH 2 HCl buffer, n = 2) is reported as below 10 μM. In addition, in data set [1] (pH 4 citrate buffer, n = 2), the “Solubility, pH 4 - citrate buffer” value was below 10 μM. For the same compound, the “Solubility, pH 7.4 - phosphate buffer” value in data set [1] (pH 7.4 phosphate buffer, n = 2) was below 10 μM.
With `CCCCCCCCC[C@H](O)CC(=O)CCc1ccc(O)c(OC)c1` [Example 10-gingerol, 10-gingerol], the “Solubility, pH 2 - HCl buffer” value in data set [1] (pH 2 HCl buffer, n = 2) was below 10 μM. Further, the “Solubility, pH 4 - citrate buffer” value in data set [1] (pH 4 citrate buffer, n = 2) was below 10 μM. Besides, in data set [1] (pH 7.4 phosphate buffer, n = 2), the “Solubility, pH 7.4 - phosphate buffer” value was below 10 μM.
On to `Nc1nc2c(ncn2COCCO)c(=O)[nH]1` [acyclovir], for which, in data set [2], the “Relief or healing of blisters” value was “None of those remedies provided any noticeable immediate relief or greater healing of the symptoms”.
